{"source": "patent US20150148234A1", "about": "“HERBICIDE-RESISTANT SUNFLOWER PLANTS WITH MULTIPLE HERBICIDE RESISTANT ALLELES OF AHASL1 AND METHODS OF USE” (NIDERA S.A., priority 2013, published 2015)", "test_in_all_cases": "imazapyr whole plant greenhouse test (Example 2)", "type_in_all_cases": "in vivo", "key": {"[1]": {"system": "sunflower hybrid H1 (L1 × L2), A205V", "experimental": "(§1) Seeds were sown in Petri dishes and, after germination, plantlets were transplanted to pots of 10 cm of diameter in a potting media consisting of equal parts of vermiculite, soil and sand. Plants were grown in a greenhouse under natural light conditions supplemented with 400 W sodium halide lamps to provide a 16 hr daylength. Day/night temperatures were 25 and 20 ° C., respectively. At the V2-V4 stage (Schneiter & Miller (1981) Crop Sci. 21:901-903) 10 plants of each genotype were randomly assigned to each treatment consisting of eight imazapyr doses (0, 40, 80, 160, 240, 320, 400 and 480 g ai/ha, corresponding to untreated, 0.5×, 1×, 2×, 3×, 4×, 5× and 6×, respectively), and a zero-time biomass determination. Experiment was arranged as a randomized block design with a full factorial (sunflower line×treatment) arrangement of treatments and 10 replications.\n(§2) On the day of herbicide application ten plants of each genotype were cut at the cotyledonal node and dried at 60° C. for 48 hrs for zero-time dried weight determination.\n(§3) The remaining plants were maintained for 14 days after imazapyr treatment (DAT) and their height, Phytotoxicity Index (PI) and above ground dry biomass were determined Height was determined as the distance between the cotyledonal node and the apex of each plant. Above ground biomass data from each line were converted to biomass accumulation after application by subtracting the appropriate average zero- time biomass from each sample. Dry biomass data were converted to percentages of the untreated control plants within each line to allow direct comparisons between groups."}, "[2]": {"system": "sunflower genotypes carrying A205V (mean of H1, L1, L2)", "settings": "for Phytotoxicity Index (0-9) 14 days after treatment / biomass accumulation 14 days after treatment, % of untreated / plant height 14 days after treatment, % of untreated: A205V Mean", "experimental": "as §1, §2, §3"}, "[3]": {"system": "sunflower hybrid H3 (L3 × L2), A205V + A122T", "experimental": "as §1, §2, §3"}}, "note": "Marks after values point to notes of the source that are not given here."}
{"molecule": "CC(C)C1(C)N=C(c2ncccc2C(=O)O)NC1=O", "note": "(stereo not shown) [imazapyr]", "values": [{"measurement": "Phytotoxicity Index (0-9) 14 days after treatment", "setting": "[1]; dose 0.5 (0.5x, 40 g ai/ha)", "result": 0}, {"measurement": "biomass accumulation 14 days after treatment, % of untreated", "setting": "[1]; dose 0.5 (0.5x, 40 g ai/ha)", "result": 95.0, "unit": "%"}, {"measurement": "plant height 14 days after treatment, % of untreated", "setting": "[1]; dose 0.5 (0.5x, 40 g ai/ha)", "result": 99.5, "unit": "%"}, {"measurement": "Phytotoxicity Index (0-9) 14 days after treatment", "setting": "[1]; dose 1 (1x, 80 g ai/ha)", "result": 0}, {"measurement": "biomass accumulation 14 days after treatment, % of untreated", "setting": "[1]; dose 1 (1x, 80 g ai/ha)", "result": 89.6, "unit": "%"}, {"measurement": "plant height 14 days after treatment, % of untreated", "setting": "[1]; dose 1 (1x, 80 g ai/ha)", "result": 99.5, "unit": "%"}, {"measurement": "Phytotoxicity Index (0-9) 14 days after treatment", "setting": "[1]; dose 2 (2x, 160 g ai/ha)", "result": 1.8}, {"measurement": "biomass accumulation 14 days after treatment, % of untreated", "setting": "[1]; dose 2 (2x, 160 g ai/ha)", "result": 75.5, "unit": "%"}, {"measurement": "plant height 14 days after treatment, % of untreated", "setting": "[1]; dose 2 (2x, 160 g ai/ha)", "result": 78.6, "unit": "%"}, {"measurement": "Phytotoxicity Index (0-9) 14 days after treatment", "setting": "[1]; dose 3 (3x, 240 g ai/ha)", "result": 6.4}, {"measurement": "biomass accumulation 14 days after treatment, % of untreated", "setting": "[1]; dose 3 (3x, 240 g ai/ha)", "result": 60.4, "unit": "%"}, {"measurement": "plant height 14 days after treatment, % of untreated", "setting": "[1]; dose 3 (3x, 240 g ai/ha)", "result": 48.4, "unit": "%"}, {"measurement": "Phytotoxicity Index (0-9) 14 days after treatment", "setting": "[1]; dose 4 (4x, 320 g ai/ha)", "result": 8.0}, {"measurement": "biomass accumulation 14 days after treatment, % of untreated", "setting": "[1]; dose 4 (4x, 320 g ai/ha)", "result": 46.5, "unit": "%"}, {"measurement": "plant height 14 days after treatment, % of untreated", "setting": "[1]; dose 4 (4x, 320 g ai/ha)", "result": 28.9, "unit": "%"}, {"measurement": "Phytotoxicity Index (0-9) 14 days after treatment", "setting": "[1]; dose 5 (5x, 400 g ai/ha)", "result": 8.9}, {"measurement": "biomass accumulation 14 days after treatment, % of untreated", "setting": "[1]; dose 5 (5x, 400 g ai/ha)", "result": 38.9, "unit": "%"}, {"measurement": "plant height 14 days after treatment, % of untreated", "setting": "[1]; dose 5 (5x, 400 g ai/ha)", "result": 25.3, "unit": "%"}, {"measurement": "Phytotoxicity Index (0-9) 14 days after treatment", "setting": "[1]; dose 6 (6x, 480 g ai/ha)", "result": 9.0}, {"measurement": "biomass accumulation 14 days after treatment, % of untreated", "setting": "[1]; dose 6 (6x, 480 g ai/ha)", "result": 33.9, "unit": "%"}, {"measurement": "plant height 14 days after treatment, % of untreated", "setting": "[1]; dose 6 (6x, 480 g ai/ha)", "result": 27.1, "unit": "%"}, {"measurement": "Phytotoxicity Index (0-9) 14 days after treatment", "setting": "[2]; dose 0.5 (0.5x, 40 g ai/ha)", "result": 0}, {"measurement": "biomass accumulation 14 days after treatment, % of untreated", "setting": "[2]; dose 0.5 (0.5x, 40 g ai/ha)", "result": "95.3* %"}, {"measurement": "plant height 14 days after treatment, % of untreated", "setting": "[2]; dose 0.5 (0.5x, 40 g ai/ha)", "result": 99.6, "unit": "%"}, {"measurement": "Phytotoxicity Index (0-9) 14 days after treatment", "setting": "[2]; dose 1 (1x, 80 g ai/ha)", "result": 0}, {"measurement": "biomass accumulation 14 days after treatment, % of untreated", "setting": "[2]; dose 1 (1x, 80 g ai/ha)", "result": "85.5** %"}, {"measurement": "plant height 14 days after treatment, % of untreated", "setting": "[2]; dose 1 (1x, 80 g ai/ha)", "result": 99.2, "unit": "%"}, {"measurement": "Phytotoxicity Index (0-9) 14 days after treatment", "setting": "[2]; dose 2 (2x, 160 g ai/ha)", "result": "2.2*"}, {"measurement": "biomass accumulation 14 days after treatment, % of untreated", "setting": "[2]; dose 2 (2x, 160 g ai/ha)", "result": "62.8** %"}, {"measurement": "plant height 14 days after treatment, % of untreated", "setting": "[2]; dose 2 (2x, 160 g ai/ha)", "result": "73.7** %"}, {"measurement": "Phytotoxicity Index (0-9) 14 days after treatment", "setting": "[2]; dose 3 (3x, 240 g ai/ha)", "result": "5.1**"}, {"measurement": "biomass accumulation 14 days after treatment, % of untreated", "setting": "[2]; dose 3 (3x, 240 g ai/ha)", "result": "48.1** %"}, {"measurement": "plant height 14 days after treatment, % of untreated", "setting": "[2]; dose 3 (3x, 240 g ai/ha)", "result": "50.1** %"}, {"measurement": "Phytotoxicity Index (0-9) 14 days after treatment", "setting": "[2]; dose 4 (4x, 320 g ai/ha)", "result": "7.4**"}, {"measurement": "biomass accumulation 14 days after treatment, % of untreated", "setting": "[2]; dose 4 (4x, 320 g ai/ha)", "result": "33.5** %"}, {"measurement": "plant height 14 days after treatment, % of untreated", "setting": "[2]; dose 4 (4x, 320 g ai/ha)", "result": "31.5** %"}, {"measurement": "Phytotoxicity Index (0-9) 14 days after treatment", "setting": "[2]; dose 5 (5x, 400 g ai/ha)", "result": "8.2**"}, {"measurement": "biomass accumulation 14 days after treatment, % of untreated", "setting": "[2]; dose 5 (5x, 400 g ai/ha)", "result": "28.7** %"}, {"measurement": "plant height 14 days after treatment, % of untreated", "setting": "[2]; dose 5 (5x, 400 g ai/ha)", "result": "27.7** %"}, {"measurement": "Phytotoxicity Index (0-9) 14 days after treatment", "setting": "[2]; dose 6 (6x, 480 g ai/ha)", "result": "8.2**"}, {"measurement": "biomass accumulation 14 days after treatment, % of untreated", "setting": "[2]; dose 6 (6x, 480 g ai/ha)", "result": "26.1** %"}, {"measurement": "plant height 14 days after treatment, % of untreated", "setting": "[2]; dose 6 (6x, 480 g ai/ha)", "result": "30.4** %"}, {"measurement": "height reduction, value reached", "setting": "[2]; A205V homozygous, from 2x to 6x, of the untreated controls", "result": 69.6, "unit": "%"}, {"measurement": "Phytotoxicity Index (0-9) 14 days after treatment", "setting": "[3]; dose 0.5 (0.5x, 40 g ai/ha)", "result": 0.5}, {"measurement": "biomass accumulation 14 days after treatment, % of untreated", "setting": "[3]; dose 0.5 (0.5x, 40 g ai/ha)", "result": 99.804, "unit": "%"}, {"measurement": "plant height 14 days after treatment, % of untreated", "setting": "[3]; dose 0.5 (0.5x, 40 g ai/ha)", "result": 98.7, "unit": "%"}, {"measurement": "Phytotoxicity Index (0-9) 14 days after treatment", "setting": "[3]; dose 1 (1x, 80 g ai/ha)", "result": 0.5}, {"measurement": "biomass accumulation 14 days after treatment, % of untreated", "setting": "[3]; dose 1 (1x, 80 g ai/ha)", "result": 100.0, "unit": "%"}, {"measurement": "plant height 14 days after treatment, % of untreated", "setting": "[3]; dose 1 (1x, 80 g ai/ha)", "result": 97.0, "unit": "%"}, {"measurement": "Phytotoxicity Index (0-9) 14 days after treatment", "setting": "[3]; dose 2 (2x, 160 g ai/ha)", "result": 0.5}, {"measurement": "biomass accumulation 14 days after treatment, % of untreated", "setting": "[3]; dose 2 (2x, 160 g ai/ha)", "result": 94.3, "unit": "%"}, {"measurement": "plant height 14 days after treatment, % of untreated", "setting": "[3]; dose 2 (2x, 160 g ai/ha)", "result": 96.7, "unit": "%"}, {"measurement": "Phytotoxicity Index (0-9) 14 days after treatment", "setting": "[3]; dose 3 (3x, 240 g ai/ha)", "result": 0.5}, {"measurement": "biomass accumulation 14 days after treatment, % of untreated", "setting": "[3]; dose 3 (3x, 240 g ai/ha)", "result": 90.8, "unit": "%"}, {"measurement": "plant height 14 days after treatment, % of untreated", "setting": "[3]; dose 3 (3x, 240 g ai/ha)", "result": 93.8, "unit": "%"}, {"measurement": "Phytotoxicity Index (0-9) 14 days after treatment", "setting": "[3]; dose 4 (4x, 320 g ai/ha)", "result": 0.5}, {"measurement": "biomass accumulation 14 days after treatment, % of untreated", "setting": "[3]; dose 4 (4x, 320 g ai/ha)", "result": 87.8, "unit": "%"}, {"measurement": "plant height 14 days after treatment, % of untreated", "setting": "[3]; dose 4 (4x, 320 g ai/ha)", "result": 92.0, "unit": "%"}, {"measurement": "Phytotoxicity Index (0-9) 14 days after treatment", "setting": "[3]; dose 5 (5x, 400 g ai/ha)", "result": 0.6}, {"measurement": "biomass accumulation 14 days after treatment, % of untreated", "setting": "[3]; dose 5 (5x, 400 g ai/ha)", "result": 72.1, "unit": "%"}, {"measurement": "plant height 14 days after treatment, % of untreated", "setting": "[3]; dose 5 (5x, 400 g ai/ha)", "result": 65.4, "unit": "%"}, {"measurement": "Phytotoxicity Index (0-9) 14 days after treatment", "setting": "[3]; dose 6 (6x, 480 g ai/ha)", "result": 1.0}, {"measurement": "biomass accumulation 14 days after treatment, % of untreated", "setting": "[3]; dose 6 (6x, 480 g ai/ha)", "result": 63.2, "unit": "%"}, {"measurement": "plant height 14 days after treatment, % of untreated", "setting": "[3]; dose 6 (6x, 480 g ai/ha)", "result": 58.0, "unit": "%"}]}
